Measurements: PubChem BioAssay (NCI)
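Each compound was tested at five concentrations against cells in 96-well plates for 48 hours. GI50 is the concentration that inhibits growth by half. TGI denotes the concentration required for complete inhibition of growth.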

System: MDA-MB-468 breast
Assay: DTP human tumour cell line panel, 48 h

Structure (SMILES)	GI50	TGI
COc1cc(-c2nn(-c3cccc(NC(=O)Nc4cccc(C(F)(F)F)c4)c3)cc2-c2ccncc2)ccc1Cl	0.369 µM	2.09 µM
Clc1ccc(Cn2c(CN3CCCC3)nc3ccccc32)cc1	13.4 µM	34.2 µM
CC(C)N(CCCNC(=O)Nc1ccc(C(C)(C)C)cc1)C[C@H]1O[C@@H](n2ccc3c(N)ncnc32)[C@H](O)[C@@H]1O	> 100 µM	> 100 µM
COc1cc(OC)c(/C=C/c2cc[n+](C)c3ccccc23)c(OC)c1	0.36 µM	5.01 µM
CC(C)Oc1ccc(-c2nn([C@@H](C)c3oc4ccc(F)cc4c(=O)c3-c3cccc(F)c3)c3ncnc(N)c23)cc1F	37.1 µM	> 100 µM
CNCCCNc1nc2ccccc2c2c(=O)c3cc(F)ccc3sc12	1.18 µM	2.6 µM
COc1cc(C2CC(c3cccc(Nc4ccncc4)c3)=NN2c2ccccc2)cc(OC)c1OC (stereo unspecified)	1.49 µM	2.95 µM
CCc1ccc(C(=O)/C=C/C23c4ccccc4C(c4ccccc42)C2C(=O)NC(=O)C23)cc1 (stereo unspecified)	1.79 µM	4.13 µM
Nc1c(C(=O)Nc2cccc(C(F)(F)F)c2)sc2nc3c(cc12)C(O)CCC3 (stereo unspecified)	1.69 µM	> 62.1 µM
O=c1ccccc(-c2ccc(Br)cc2)c1O	0.257 µM	2.32 µM
Cc1ccc(CN(C)c2ccc(CO)c(Cl)c2)cc1	0.0389 µM	0.166 µM
Cc1ccc(C2=NN(c3ccc(S(C)(=O)=O)cc3)C(=O)CC2)cc1	1.23 µM	4.86 µM
O=c1ncc(I)cn1C1CC(O)C(CO)O1 (stereo unspecified)	935 µM	2980 µM
O=C(Nc1ccc(Cl)cc1)Nc1ccc(Cl)c(C(F)(F)F)c1	1.67 µM	4.8 µM
C#CC[C@@H]1C[C@]2(C)[C@H]3CC[C@@H]4[C@H]5C(C(=C)C)CC[C@]5(C(=O)NCCCCN)CC[C@@]4(C)[C@]3(C)CC[C@H]2C(C)(C)[C@H]1OC(C)=O (stereo partly specified)	1.78 µM	3.59 µM
O=C1C=CC2(O)OC/C(=C\c3ccccc3)C(O)=C2C1=O (stereo unspecified)	1.62 µM	3.23 µM
Cc1cc(=O)n2nnc3c4ccccc4ccc3n12	1.75 µM	4.82 µM
COc1ccc(-c2ccc(-c3ccc(C(=N)N)c(F)c3)s2)cc1	0.373 µM	1.21 µM
CCN(CC)CC(O)CNc1c2ccc(Cl)cc2nc2ccc(OC)cc12 (stereo unspecified)	0.666 µM	2.18 µM
COc1ccc(C(=S)N(C)NC(=O)CC(=O)NN(C)C(=S)c2ccc(OC)cc2)cc1	48.7 µM	> 100 µM
O=C(OCC1OC(n2cc(C(F)(F)F)c(=O)[nH]c2=O)CC1OC(=O)c1ccc([N+](=O)[O-])cc1)c1ccc([N+](=O)[O-])cc1 (stereo unspecified)	28 µM	> 100 µM
CCc1cccc2c3c(sc12)C(c1ccc(F)cc1)C(C#N)=C(/N=C/c1ccc(Cl)cc1)O3 (stereo unspecified)	0.248 µM	0.812 µM
COC(=O)/C=C1/SC(=Nc2ccc(F)cc2)N(CCc2c[nH]c3ccc(O)cc23)C1=O	3.03 µM	23.6 µM
COc1cc(/C=C/C(=O)c2ccccc2)cc(OC)c1OC	2.3 µM	8.32 µM

Structure (SMILES)	GI50	TGI
COc1ccc(C2C=C(c3ccc(OC)c(OC)c3)N=C3SC=CN32)c(Br)c1 (stereo unspecified)	1.88 µM	3.91 µM
O=C1OCC2=C1C(c1ccc3c(c1)OCO3)c1cc3c(cc1O2)OCO3 (stereo unspecified)	0.938 µM	> 100 µM
c1ccc(CC(Cc2ccccc2)C2=NCCCN2)cc1	2.92 µM	> 100 µM
Cc1cc(Cl)ccc1OCc1nn2c(CCCCc3nnc4sc(COc5ccc(Cl)cc5C)nn34)nnc2s1	8.42 µM	81.2 µM
O=C1/C=C/[C@@H](O)[C@@H]2C[C@@H](O)C[C@H]2/C=C/CCC[C@H](CCc2ccccc2)O1	< 0.01 µM	0.0251 µM
C[CH2][Pb]([CH2]C)([CH2]C)[O]C(=O)COC	0.201 µM	0.71 µM
c1ccc(-c2n(Cc3ccc4ccccc4c3)c3c4ccccc4c4ccccc4c3[n+]2Cc2ccc3ccccc3c2)cc1	0.23 µM	0.845 µM
Cc1cc2cn3c4ccc(O)cc4nc(N)c3c2cc1C	0.222 µM	0.626 µM
CC1(C)CC[C@]2(C(=O)Nc3ccccn3)CC[C@]3(C)C(=CC[C@@H]4[C@@]5(C)C/C(=C/c6ccncc6)C(=O)C(C)(C)[C@@H]5CC[C@]43C)[C@@H]2C1	2.12 µM	> 100 µM
CC(=O)c1c(Nc2cccc(F)c2)[nH]c2c(Cl)cc(Cl)c(Cl)c2c1=O	0.317 µM	1.35 µM
[2H]c1nc(C)nc([2H])c1-c1cc(NC[C@@H](C)c2cccc3c(C(=O)NC)ccnc23)ncn1	56 µM	> 100 µM
COc1cc(/C=C2\C(=O)Nc3ccccc32)cc(OC)c1O	1.57 µM	7.67 µM
Cc1nc2cc(-c3nn(C(C)C)c4ncnc(N)c34)ccc2o1	0.00863 µM	0.101 µM
CN(C)CCONC(=O)C12CC3CC(CC(C3)C1)C2	> 100 µM	> 100 µM
COc1cccc2c1O/C(=C\c1ncc([N+](=O)[O-])n1C)C2=O	1.59 µM	4.3 µM
COc1ccc(C(=O)c2sc3nc4c(cc3c2N)CCCC4)cc1OC	2.46 µM	23.6 µM
O=C(O)c1ccc(NCc2nc3cc(Cl)c(Cl)cc3[nH]2)cc1	62 µM	> 100 µM
Nc1c(C(=O)c2cccc(OC[C@@H](O)CO)c2)cnn1-c1ccc(F)cc1	> 25 µM	> 25 µM
CC(=O)Oc1cc(C(C)C)c(OCCN(C)C)cc1C	> 100 µM	> 100 µM
Nc1nc2cc(O)ccc2n2cc3c(F)cccc3c12	2.66 µM	> 100 µM
COc1ccc(/C=C2\COc3ccc(O)c(O)c3C2=O)cc1	1.24 µM	3.94 µM
CC(=O)N1CCC(Nc2ncc3cc(Oc4ccc(F)cc4F)c(=O)n(C)c3n2)CC1	> 25 µM	> 25 µM
Cc1oc2c(C(=O)N/N=C\c3ccc(O)cc3O)c[nH]c2c1C	1.96 µM	18.3 µM
Cn1c(-c2ccncc2)c(-c2ccc(F)cc2)c2ncccc21	> 22.7 µM	> 25 µM
